Laboratory results taken from patent US20210261642A1, “SOLUBILITY OF GLP-1 PEPTIDE” (Novo Nordisk A/S, priority 2017, published 2021).
Values after ≈ are worked out from the molar mass of the structure shown. Read-outs that look alike come from different tables or passages of the source.

Assay: Assay (I): Determination of Solubility (96-well plate, pH 3.0-11.0, organic solvent 0-70% w/w, UV absorption at 280 nm)
Assay type: physicochemical
Conditions: for GLP-1 peptide concentration: Method 2 (precipitation), 5° C.; for solubility thermodynamic at 24 h: read-out: Peptide concentration after 24 h
Method: Assay (I): Determination of Solubility
96-Well Plate Preparation
96-well plates containing target peptide in a solid form were prepared in one of two ways:
Method 1 (evaporation): Addition of 100 μl stock solution of said peptide at a concentration of 4-6 mg/ml to each well of a 96-well half area plate (150 μl well size). Subsequently the solvent was evaporated by applying a vacuum until the solvent was completely removed.
Method 2 (precipitation): Addition of a certain volume of a stock solution of said peptide containing to each well of a 96-well half area plate followed by the addition of a certain volume of concentrated phosphoric acid to obtain a pH of 4.6 followed by addition of a certain volume of ethanol resulting in a final ethanol concentration of 20% v/v. Subsequently the plate was stored at 4° C. for 1 h and then centrifuged at 4,000 rpm for 20 min. Finally the supernatant was removed. The concentration of the stock solution was chosen in a way that the final amount of peptide after supernatant removal was >0.4 mg per well.
In both cases the stock solution was prepared by adding de-ionized water to a certain amount of powder of said peptide followed by a stepwise addition of small amounts of a concentrated sodium hydroxide solution until said peptide was completely in solution.
To determine solubility of a target peptide at different pH and organic solvent concentrations, two different buffer systems were used in independent experiments to cover the whole range from pH 3.0 to pH 11.0. Buffer system 1 covers pH 3.0-7.5 and buffer system 2 covers pH 7.5-11.0. For each buffer system 96 different solvent compositions were premixed in the following way: • 1. A low pH buffer (adjusted to either pH 3.0 or pH 7.5) and a high pH buffer (adjusted to either pH 7.5 or pH 11.0) were mixed at 8 different ratios to obtain values between pH 3.0 and pH 7.5 or pH 7.5 and pH 11.0, respectively. The total volume after mixing was 300 μl. • 2. 12 different amounts of organic solvent were then added to these buffers to obtain organic solvent (e.g. ethanol) concentrations between 0 and 70% w/w. • 3. Water was then added to obtain a total weight of 1.0 g of solvent in each well.
After preparing the 96 different solvent systems, 100 μl of each system was transferred to the 96-well plate containing the solid form of the target peptide (prepared as described in the section “96-well plate preparation”). The plate was then stored at a given temperature (between 5° C. and 70° C.) for a given time on a rotating shaker set to 400 rpm. At regular time intervals the plate was centrifuged (4,000 rpm for 10 min) and a 10 μl sample was taken from each well. The samples were then analysed by UV absorption at 280 nm for peptide quantification. Peptide concentration results are given as UV absorption at 280 nm of the sample subtracted UV absorption at 280 nm of a well comprising 10 μl water.
The buffers used were as follows: • Buffer system 1 (for the pH range from pH 3.0-7.5)
• Buffer system 2 (for the pH ranae from pH 7.5-11.0)
Solubility of liraglutide was determined using Assay (I) described herein. Liraglutide was prepared using Method 1 (evaporation) or Method 2 (precipitation) as described in subsection “96-well plate preparation”.

SMILES: CCCCCCCCCCCCCCCC(=O)N[C@@H](CCC(=O)NCCCC[C@H](NC(=O)[C@H](C)NC(=O)[C@H](C)NC(=O)[C@H](CCC(N)=O)NC(=O)CNC(=O)[C@H](CCC(=O)O)NC(=O)[C@H](CC(C)C)NC(=O)[C@H](Cc1ccc(O)cc1)NC(=O)[C@H](CO)NC(=O)[C@H](CO)NC(=O)[C@@H](NC(=O)[C@H](CC(=O)O)NC(=O)[C@H](CO)NC(=O)[C@@H](NC(=O)[C@H](Cc1ccccc1)NC(=O)[C@@H](NC(=O)CNC(=O)[C@H](CCC(=O)O)NC(=O)[C@H](C)NC(=O)[C@@H](N)Cc1cnc[nH]1)[C@@H](C)O)[C@@H](C)O)C(C)C)C(=O)N[C@@H](CCC(=O)O)C(=O)N[C@@H](Cc1ccccc1)C(=O)N[C@H](C(=O)N[C@@H](C)C(=O)N[C@@H](Cc1c[nH]c2ccccc12)C(=O)N[C@@H](CC(C)C)C(=O)N[C@H](C(=O)N[C@@H](CCCNC(=N)N)C(=O)NCC(=O)N[C@@H](CCCNC(=N)N)C(=O)NCC(=O)O)C(C)C)[C@@H](C)CC)C(=O)O [liraglutide, Arg34,Lys26-(N-epsilon-(gamma-L-glutamyl(N-alfa-hexadecanoyl)))-GLP-1(7-37)]
- GLP-1 peptide concentration (MeCN 63.6% w/w, pH 10.00, 5 min, before removal of outliers): 0.4 mg/mL
- GLP-1 peptide concentration (MeCN 63.6% w/w, pH 10.00, 180 min, after removal of outliers): 2.9 mg/mL
- GLP-1 peptide concentration (MeCN 63.6% w/w, pH 10.00, 180 min, before removal of outliers): 2.9 mg/mL
- GLP-1 peptide concentration (MeCN 63.6% w/w, pH 10.00, 24 h, after removal of outliers): 1.0 mg/mL
- GLP-1 peptide concentration (MeCN 63.6% w/w, pH 10.00, 24 h, before removal of outliers): 1.0 mg/mL
- GLP-1 peptide concentration (MeCN 63.6% w/w, pH 10.50, 5 min, after removal of outliers): 0.6 mg/mL
- GLP-1 peptide concentration (MeCN 63.6% w/w, pH 10.50, 5 min, before removal of outliers): 0.6 mg/mL
- GLP-1 peptide concentration (MeCN 63.6% w/w, pH 10.50, 180 min, after removal of outliers): 3.4 mg/mL
- GLP-1 peptide concentration (MeCN 63.6% w/w, pH 10.50, 180 min, before removal of outliers): 3.4 mg/mL
- GLP-1 peptide concentration (MeCN 63.6% w/w, pH 10.50, 24 h, after removal of outliers): 1.3 mg/mL
- GLP-1 peptide concentration (MeCN 63.6% w/w, pH 10.50, 24 h, before removal of outliers): 1.3 mg/mL
- GLP-1 peptide concentration (MeCN 63.6% w/w, pH 11.00, 5 min, after removal of outliers): 0.5 mg/mL
- GLP-1 peptide concentration (MeCN 63.6% w/w, pH 11.00, 5 min, before removal of outliers): 0.5 mg/mL
- GLP-1 peptide concentration (MeCN 63.6% w/w, pH 11.00, 180 min, after removal of outliers): 3.2 mg/mL
- GLP-1 peptide concentration (MeCN 63.6% w/w, pH 11.00, 180 min, before removal of outliers): 3.2 mg/mL
- GLP-1 peptide concentration (MeCN 63.6% w/w, pH 11.00, 24 h, after removal of outliers): 1.0 mg/mL
- GLP-1 peptide concentration (MeCN 63.6% w/w, pH 11.00, 24 h, before removal of outliers): 1.0 mg/mL
- GLP-1 peptide concentration (MeCN 70.0% w/w, pH 7.50, 5 min, before removal of outliers): 0.3 mg/mL
- GLP-1 peptide concentration (MeCN 70.0% w/w, pH 7.50, 180 min, before removal of outliers): 0.7 mg/mL
- GLP-1 peptide concentration (MeCN 70.0% w/w, pH 7.50, 24 h, before removal of outliers): 1.6 mg/mL
- GLP-1 peptide concentration (MeCN 70.0% w/w, pH 8.00, 5 min, after removal of outliers): 0.4 mg/mL
- GLP-1 peptide concentration (MeCN 70.0% w/w, pH 8.00, 5 min, before removal of outliers): 0.4 mg/mL
- GLP-1 peptide concentration (MeCN 70.0% w/w, pH 8.00, 180 min, after removal of outliers): 1.0 mg/mL
- GLP-1 peptide concentration (MeCN 70.0% w/w, pH 8.00, 180 min, before removal of outliers): 1.0 mg/mL
- GLP-1 peptide concentration (MeCN 70.0% w/w, pH 8.00, 24 h, after removal of outliers): 2.5 mg/mL
- GLP-1 peptide concentration (MeCN 70.0% w/w, pH 8.00, 24 h, before removal of outliers): 2.5 mg/mL
- GLP-1 peptide concentration (MeCN 70.0% w/w, pH 8.50, 5 min, after removal of outliers): 0.4 mg/mL
- GLP-1 peptide concentration (MeCN 70.0% w/w, pH 8.50, 5 min, before removal of outliers): 0.4 mg/mL
- GLP-1 peptide concentration (MeCN 70.0% w/w, pH 8.50, 180 min, after removal of outliers): 1.4 mg/mL
- GLP-1 peptide concentration (MeCN 70.0% w/w, pH 8.50, 180 min, before removal of outliers): 1.4 mg/mL
- GLP-1 peptide concentration (MeCN 70.0% w/w, pH 8.50, 24 h, after removal of outliers): 3.3 mg/mL
- GLP-1 peptide concentration (MeCN 70.0% w/w, pH 8.50, 24 h, before removal of outliers): 3.3 mg/mL
- GLP-1 peptide concentration (MeCN 70.0% w/w, pH 9.00, 5 min, after removal of outliers): 0.4 mg/mL
- GLP-1 peptide concentration (MeCN 70.0% w/w, pH 9.00, 5 min, before removal of outliers): 0.4 mg/mL
- GLP-1 peptide concentration (MeCN 70.0% w/w, pH 9.00, 180 min, after removal of outliers): 1.5 mg/mL
- GLP-1 peptide concentration (MeCN 70.0% w/w, pH 9.00, 180 min, before removal of outliers): 1.5 mg/mL
- GLP-1 peptide concentration (MeCN 70.0% w/w, pH 9.00, 24 h, after removal of outliers): >4.0 mg/mL
- GLP-1 peptide concentration (MeCN 70.0% w/w, pH 9.00, 24 h, before removal of outliers): >4.0 mg/mL
- GLP-1 peptide concentration (MeCN 70.0% w/w, pH 9.50, 5 min, after removal of outliers): 0.5 mg/mL
- GLP-1 peptide concentration (MeCN 70.0% w/w, pH 9.50, 5 min, before removal of outliers): 0.5 mg/mL
- GLP-1 peptide concentration (MeCN 70.0% w/w, pH 9.50, 180 min, before removal of outliers): 1.9 mg/mL
- GLP-1 peptide concentration (MeCN 70.0% w/w, pH 9.50, 24 h, before removal of outliers): >4.0 mg/mL
- solubility thermodynamic at 24 h (aqueous buffer / organic solvent mixture, pH 3.1, aqueous buffer, DMF 0.0% w/w, pH 3.1, RT, Method 1 (evaporation)): 0.3 mg/mL (≈ 80 µM)
- solubility thermodynamic at 24 h (aqueous buffer / organic solvent mixture, pH 4.8, aqueous buffer, DMF 0.0% w/w, pH 4.8, RT, Method 1 (evaporation)): 0.2 mg/mL (≈ 53.3 µM)
- solubility thermodynamic at 24 h (aqueous buffer / organic solvent mixture, pH 5.8, aqueous buffer, DMF 0.0% w/w, pH 5.8, RT, Method 1 (evaporation)): 1.5 mg/mL (≈ 400 µM)
- solubility thermodynamic at 24 h (aqueous buffer / organic solvent mixture, pH 6.7, aqueous buffer, DMF 0.0% w/w, pH 6.7, RT, Method 1 (evaporation)): 2.2 mg/mL (≈ 586 µM)
- solubility thermodynamic at 24 h (pH 3, aqueous buffer, MeCN 0.0% w/w, pH 3.0, RT, Method 1): 0.1 mg/mL (≈ 26.7 µM)
- solubility thermodynamic at 24 h (pH 3.6, aqueous buffer, MeCN 0.0% w/w, pH 3.6, RT, Method 1): 0.1 mg/mL (≈ 26.7 µM)
- solubility thermodynamic at 24 h (pH 4.9, aqueous buffer, MeCN 0.0% w/w, pH 4.9, 5° C., Method 1): 0.1 mg/mL (≈ 26.7 µM)
- solubility thermodynamic at 24 h (pH 6.2, aqueous buffer, MeCN 0.0% w/w, pH 6.2, 5° C., Method 1): 0.1 mg/mL (≈ 26.7 µM)
- solubility thermodynamic at 24 h (pH 6.2, aqueous buffer, MeCN 0.0% w/w, pH 6.2, RT, Method 1): 0.5 mg/mL (≈ 133 µM)
- solubility thermodynamic at 24 h (premixed buffer/organic solvent/water solvent system, pH 4.3, aqueous buffer, MeCN 0.0% w/w, pH 4.3, 5° C., Method 1): 0.2 mg/mL (≈ 53.3 µM)
